According to PubChem BioAssay (NCI):
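Cultured in 96-well plates, cells were exposed to test compound for 48 hours across five concentrations. TGI: total growth inhibition.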

Experiments:
Assay in all cases: inhibition of tumour cell growth, NCI panel, 48 h
LOX IMVI melanoma = system: LOX IMVI melanoma
RPMI-8226 leukemia = system: RPMI-8226 leukemia
K-562 leukemia = system: K-562 leukemia
MOLT-4 leukemia = system: MOLT-4 leukemia
A498 renal = system: A498 renal
A549 NSCLC = system: A549 NSCLC
M14 melanoma = system: M14 melanoma
HCT-15 colon = system: HCT-15 colon
SF-268 CNS = system: SF-268 CNS

Row | SMILES | TGI (LOX IMVI melanoma) [µM] | TGI (RPMI-8226 leukemia) [µM] | TGI (K-562 leukemia) [µM] | TGI (MOLT-4 leukemia) [µM] | TGI (A498 renal) [µM] | TGI (A549 NSCLC) [µM] | TGI (M14 melanoma) [µM] | TGI (HCT-15 colon) [µM] | TGI (SF-268 CNS) [µM]
1 | Cc1cc(C(C)(C)C)c(OCCCN2CCOCC2)c(C(C)(C)C)c1 | 36.5 | 34.8 | 33.3 | 33.7 | 33.4 | 32.5 | 31.7 | 32.7 | 33.5
2 | COC(=O)C1CC(C=O)=C(SC)N1 (stereo not drawn) | – | > 50 | > 50 | > 50 | > 50 | > 50 | > 50 | > 50 | > 50
3 | Cc1ccc(Oc2cc(C)ccc2P(=O)(O)O)cc1 | > 100 | > 100 | > 100 | > 100 | – | > 100 | > 100 | > 100 | > 100
4 | C[N+](C)(C)c1nc(N)nc2c1ncn2C1OC(CO)C(O)C1O (stereo not drawn) | > 100 | > 100 | > 100 | > 100 | > 100 | > 100 | > 100 | > 100 | > 100
5 | Cc1ccc2c(=O)c3c(O)c4c(cc3n(C)c2c1)OC(C)(C)C=C4 | > 10 | > 10 | > 10 | > 10 | > 10 | > 10 | > 10 | > 10 | > 10
6 | O=C(NC(Cc1c[nH]c2ccccc12)C(=O)O)/C(=C/c1ccccc1)NC(=O)c1ccccc1 (stereo not drawn) | > 100 | > 100 | > 100 | > 100 | > 100 | > 100 | > 100 | > 100 | > 100
7 | COc1ccc(/C=C(\C#N)c2nc(-c3cc4ccccc4oc3=O)cs2)cc1 | > 100 | > 100 | > 100 | > 100 | – | > 100 | 86 | > 100 | 83.4
8 | Cc1cc2nnn(C3CCCO3)c2cc1C (stereo not drawn) | – | – | > 100 | > 100 | > 100 | > 100 | > 100 | > 100 | > 100
9 | CCCNC(=O)Cn1c(-c2ccccc2)cc2ccccc21 | > 100 | > 100 | > 100 | > 100 | – | > 100 | > 100 | > 100 | > 100
10 | CN1C(C(=O)Nc2ccccn2)=C(O)c2ccccc2S1(=O)=O | > 100 | > 100 | – | > 100 | – | > 100 | > 100 | > 100 | > 100
11 | NC(=S)NS(=O)(=O)c1ccc(Cl)cc1Cl | > 100 | > 100 | > 100 | > 100 | – | > 100 | > 100 | > 100 | > 100
12 | CC(=O)Oc1ccc(-c2c(OC(C)=O)c(OC(C)=O)c(-c3ccc(OC(C)=O)c(OC(C)=O)c3)c(OC(C)=O)c2OC(C)=O)cc1 | 31.8 | 35.4 | 43.5 | 44.3 | > 100 | 37.8 | 33.7 | 37.3 | 32.8
13 | Clc1cccc(Cl)c1C1ON=C(c2ccccc2)N1C12CC3CC(CC(C3)C1)C2 (stereo not drawn) | 63.7 | 47.8 | 44.7 | 46.3 | > 100 | > 100 | > 100 | > 100 | > 100
14 | O=[N+]([O-])c1ccc(-c2nc3ccccc3o2)cc1 | > 100 | > 100 | > 100 | > 100 | > 100 | > 100 | > 100 | > 100 | > 100
15 | COc1ccc(CNc2cnc3cc(N)ccc3n2)cc1OC | > 100 | > 100 | > 100 | > 100 | – | > 100 | > 100 | > 100 | > 100
16 | NC(Cc1ccccc1)C(=O)O (stereo not drawn) | > 100 | > 100 | > 100 | > 100 | > 100 | > 100 | > 100 | > 100 | > 100
17 | CN(NC(=O)/C(=C/C=C/c1ccccc1)NC(=O)c1ccccc1)C1=C(Cl)C(=O)[N+](c2ccccc2)=CC1 | 32.3 | 63.2 | 49.9 | 81.9 | > 100 | 93.8 | 40.2 | 62.8 | 70.4
18 | Cn1cnc([N+](=O)[O-])c1Sc1nncc2[nH]cnc12 | > 100 | > 100 | > 100 | > 100 | > 100 | > 100 | > 100 | > 100 | –
19 | C1CN(C23OC4(N5CCOCC5)C5C6CC(C7C6C4C72)C53)CCO1 (stereo not drawn) | > 100 | > 100 | > 100 | > 100 | > 100 | > 100 | > 100 | > 100 | > 100
20 | CCCS(=O)OC1C(C2COC(C)(C)O2)OC2OC(C)(C)OC21 (stereo not drawn) | 21.4 | 12.8 | > 100 | 6.57 | 97 | 49.6 | 37.8 | 41.6 | 62.4
21 | COc1ccc(C2=C(N)c3ccccc3C2=O)cc1 | > 100 | > 100 | – | > 100 | > 100 | > 100 | > 100 | > 100 | > 100
22 | O=c1oc2ccccc2cc1-c1nc2ccccc2s1 | 24.2 | > 85 | – | – | 29.4 | 16.8 | > 47.6 | – | 25.2
23 | CCOC(=O)Cn1c(C)nc2nn(Cc3ccccc3)cc2c1=O | – | – | > 100 | > 100 | > 100 | > 100 | > 100 | > 100 | > 100
24 | CCCCC[C@@H]1OC(=O)[C@@]2(CC3c4ccccc4C2c2ccccc23)[C@H]1C(=O)OC | > 100 | 54.3 | > 100 | – | 82.5 | > 100 | > 100 | > 100 | > 100
